Consider 2 molecules from article PMC7403315, “Cyclic peptide FXII inhibitor provides safe anticoagulation in a thrombosis model and in artificial lungs” (Nature Communications, 2020).

“And” between values parts separate entries of the source, which are not always exact repeats. Equal values may be shown once. “Also recorded” adds a separate entry of the source. Residues, ends and D or L forms follow the SMILES beside them.

The test system of data set [1] is coagulation in artificial lung. The data set is described as follows: Extracorporeal circulation (veno-venous ECMO, artificial lung) in rabbits.
Description: New Zealand white rabbits of 3.2–4.2 kg (Charles River) were anesthetized via intramuscular injections of ketamine (30 mg kg^−1) and xylazine (5 mg kg^−1). One of the ear veins was catheterized via a 24G winged catheter, and the rabbits were intubated with a 3.0 endotracheal tube. The animals were kept anesthetized throughout the four-hour experiment via inhaled isoflurane (2%) and were ventilated with a peak inspiratory pressure (PIP) of < 20 cmH2O, positive end expiratory pressure of 5 mmHg, tidal volume of 4–6 ml kg^−1, and a respiratory rate of 22–60 breaths per min. Tidal volume and respiratory rate were adjusted to maintain normal arterial blood gases and the listed PIP. Phenylephrine was applied intravenously at a rate of 0.5–5 μg kg^−1 min^−1 to maintain blood pressure. For monitoring blood pressure and collecting blood samples, the rabbits’ right or left carotid arteries were cannulated using a 16-gauge angiocatheter (Becton Dickinson) and were secured with silk ties. The device and circuit were first primed with filtered CO2 and then with saline (NaCl, 0.9% [w/v]) containing solumedrol (30 mg kg^−1). At this point, rabbits of the inhibitor-treated group were injected with 2 mg kg^−1 of FXII900 as a 2 mM solution in PBS (pH 7.4) via the ear vein and the circuit was connected to the rabbits via a venous/venous ECMO configuration using a 14-gauge angiocatheter (Becton Dickinson) and a 6″ pressure tubing that was cut to length from a 24″ pressure tubing (Edwards Lifesciences) in the right and left internal jugular veins, respectively. The circuit was placed in a roller pump (Cobe), and the blood flow was set to 45 ml per min. After connecting the extracorporeal circuit, rabbits of the inhibitor-treated group were infused with 0.075 mg kg^−1 min^−1 FXII900 via the ear vein for the entire duration of the study. Rabbits treated with heparin were initially infused with 60 IU h^−1 (100 IU ml^−1) starting before connection to the circuit. The drip rate was adjusted based on the following nomogram to maintain the ACT in a range between 220 and 300 s. ACT > 320 s: decrease infusion rate by 12 IU h^−1, 320 s > ACT > 300 s: decrease infusion rate by 6 IU h^−1, 300 s > ACT > 220 s: maintain heparin infusion rate, 220 s > ACT > 200 s: increase infusion rate by 6 IU h^−1, 200 s > ACT > 180 s: increase infusion rate by 12 IU h^−1, ACT < 180 s bolus 100 U (1 ml). After four hours, the animals were euthanized by potassium chloride (2 mg kg^−1, IV). At the end of the experiment, 5 ml of heparin was run through the artificial lung while it was still connected to the rabbits.
Data set [2] deals with ferric chloride-induced thrombosis. The data set can be described thus: FeCl3 injury thrombosis model in mesenteric arterioles in mice. It is filed as in vivo, mouse. The procedure: A model of thrombosis in mesenteric arterioles using intravital microscopy was performed according to Angelillo-Scherrer A. et al.[46] with minor modifications. C57BL/6J wild-type mice (male, 10–20 weeks old, 25–30 g, Charles River) were injected intravenously with Rhodamine 6G (100 μl, 1 mM, ACROS Organics product 41902) to fluorescently label the platelets and leucocytes. The mice were injected subcutaneously over the shoulders with FXII900 (5 or 25 mg kg^−1, 0.5 mg ml^−1 in PBS, pH = 7.4) or the negative control FXII901 (5 or 25 mg kg^−1, 0.5 mg ml^−1 in PBS, pH = 7.4), or intravenously (retro-orbital) with 200 IU kg^−1 heparin, and subsequently anesthetized with ketamine (80 mg kg^−1) and xylazine (16 mg kg^−1) via intraperitoneal injection. An abdominal midline incision was made to expose the mesenteric arterioles which were imaged by intravital microscopy using a Mikron IVM500 microscope (Mikron Instruments) coupled with a 50 W mercury lamp (HBO 50 microscope illuminator, Zeiss) attached to combined blue (exciter 455DF70, dichroic 515DRLP, and emitter 515ALP) and green (exciter 525DF45, dichroic 560DRLP, and emitter 565ALP) filter blocks. […] The blood flow, clot formation and vessel occlusion were monitored for 20 or 25 min wherein images were recorded every minute using a digital video cassette recorder (DSR-11, Sony) and analyzed using ImageJ software (version 1.52). Mice were euthanized by final bleeding and cervical dislocation. Time to clot formation and full occlusion of the blood vessel were determined as follows. Clot formation was defined as the formation of a clear aggregation with a diameter of around 10 µm or larger. Occlusion was defined as a clot covering the full diameter of the vessel. Mice showing no speckled pattern at the site of FeCl3 application were assumed to be not injured at the blood vessel and were excluded from the analysis.

In data set [3] the test system is hemostasis (tail bleeding). The data set is described as follows: Tail bleeding time and volume (tail transection). The following applies: mice, 2 mm tail transection, peptides 25 mg kg^−1 SC, heparin 200 IU kg^−1 IV. The procedure:
Mice (8- to 10-week-old) were anesthetized with pentobarbital (50 mg kg^−1, IP), treated with PBS (IV, retro-orbital), 200 IU kg^−1 heparin (IV, retro-orbital), 25 mg kg^−1 FXII900 (SC) or 25 mg kg^−1 FXII901 (SC), and put on a 37 °C heating pad. After 5 min, the distal tail was transected at 2 mm with a disposable surgical blade, and the diameter measured to confirm that it is > 1 mm. The tail was placed in a 50 ml falcon tube filled with phosphate-buffered saline (warmed to 37 °C) and the bleeding time was recorded. The total blood loss was determined by measuring the absorption at 540 nm.

For the next data set, the system named is FXIIa. The following applies: cited from earlier work.
The mark [4] stands for this setting: ECMO 4 h, FXII900 2 mg kg^−1 bolus + 0.075 mg kg^−1 min^−1, heparin to ACT 220–300 s.
The mark [5] stands for this setting: repeat study, 20 min, heparin 200 IU kg^−1, n = 10.

With heparin, in data set [1] (setting [4]), the aPTT prolongation is 1.5 fold and the “activated clotting time (ACT) prolongation” value is recorded as 2 fold. Also, the bleeding time prolongation in data set [1] (ECMO, all time points) worked out at 2 fold. For the same molecule, the “volume of the clot in relation to the device volume” value in data set [1] (ECMO, end of experiment) amounted to 5%. In data set [1] (ECMO, throughout the experiment), the “bleeding time (ear incision)” value was in the range of 5 to 10 min. Besides, in data set [2] (200 U kg-1), the “Clot (time to clot formation), individual mice” value was 10 min (2×) and 15 min (3×) and 13 min; the “Occlusion (time to full occlusion), individual mice” value amounted to 19 min. In data set [2] (setting [5]), the “mice showing blood clotting” value is “six” and the “mice showing vessel occlusion” value is “one”. In addition, in data set [3] (30 min monitored), the bleeding time entry is “bled essentially continuously throughout the monitored 30 min period; also recorded: constantly bleeding throughout the 30 min period”. Moreover, the blood loss entry in data set [3] is given as “medium to high blood loss; also recorded: either a small (3 mice) or large loss of blood (3 mice); also recorded: lost a large volume of blood”.

As a reminder, the IC50 is the point on the concentration scale where inhibition reaches its midpoint. For the molecule `NC(N)=NCCC[C@H](NC(=O)[C@H](Cc1ccccc1)NC(=O)[C@H]1CCCN1)C(=O)CCl` [PCK, H-D-Pro-Phe-Arg-chloromethylketone] (HELM PEPTIDE1{[dP].F.R.[ClC[*:1]]}$$$$V2.0), the IC50 in the data set with FXIIa was 180 nM.
